This is an account of results in US7754896B2, “Indol-alanine derivatives as selective S1P4-agonists” (Novartis AG, priority 2004, dated 2010).

The target of this test is T1, S1P4 (Homo sapiens, UniProt O95977).
T1 construct: expressed in transfected cells
T1 sequence (O95977 1-384): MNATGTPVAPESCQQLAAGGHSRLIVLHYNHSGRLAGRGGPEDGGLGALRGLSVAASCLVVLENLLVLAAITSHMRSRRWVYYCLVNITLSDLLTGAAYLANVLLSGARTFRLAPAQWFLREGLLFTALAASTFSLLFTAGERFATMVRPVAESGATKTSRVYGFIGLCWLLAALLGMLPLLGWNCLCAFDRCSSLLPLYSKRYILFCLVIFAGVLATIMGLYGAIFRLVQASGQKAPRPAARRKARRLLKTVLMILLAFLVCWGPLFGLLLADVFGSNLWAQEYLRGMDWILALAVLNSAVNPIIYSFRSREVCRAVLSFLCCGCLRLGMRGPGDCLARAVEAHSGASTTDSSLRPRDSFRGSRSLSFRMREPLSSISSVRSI
The experiment in a line: Calcium mobilization assay, CHO cells expressing S1P4. In kind it is cell-based. As to the method: An expression vector for the human S1P4 gene (HSEDG4; GenBank Accession Number AJ000479) fused to the c-myc peptide tag at the C-terminus is obtained as described in Van Brocklyn et al. 2000, Blood 95(8), 2624. The encoding DNA for the S1P4-myc fusion protein is cloned in the mammalian expression vector pRc/CMV (Invitrogen), which confers G418 resistance for the selection of stable mammalian cells. The DNA sequence of the S1P4 insert is determined on both strands. […] The S1P4-myc cDNA is inserted into the pRc/CMV vector using HindIII/XbaI.
To develop stable cell lines expressing the c-myc tagged S1P4 receptor 5 μg of plasmid pRc/CMV myc-S1P4 is cut using restriction endonuclease PvuI, which cleaves the plasmid once. The linearized plasmid is then precipitated using a final concentration of 0.3M sodium acetate, pH5.0 and 66% ethanol. […] Individual clones that grew after the sort and selection procedure are expanded and one clone is finally selected based on the level of S1P4 mRNA expression determined by TaqMan quantitative PCR analysis.
CHO cells are plated in black Costar plate (96 or 384 well, 50,000 cells or 12,500 cells, respectively) in a MEM with FCS and cultured for 20-24 h at 37° C. in a CO2 incubator. […] After measuring the baseline for 40 sec, the agonist in HBSS is added and the fluorescence is measured at intervals of 2 sec for 3 to 5 min. […]

Consider `NC(CNC(=O)c1cc2c(-c3ccccc3Cc3ccccc3)cccc2[nH]1)C(=O)O` (stereo not shown) [Example 2], for which the EC50 worked out at 0.01 µM.
